Measured values: patent US20120244106A1 (SANOFI-AVENTIS U.S. LLC, priority 2009, published 2012)

How the values were obtained:
Assay type in all cases: in vivo, humans
[1] = test system: relapsing-remitting multiple sclerosis patients; test: Brain MRI Gd-enhancing T1-lesions (number and volume), 24-week placebo-controlled add-on study, ITT population; conditions: 24 weeks
Description: (§1) A placebo-controlled, double-blinded, randomized study was conducted in relapsing-remitting multiple sclerosis patients who were concurrently on a stable dose of glatiramer acetate. The dose of glatiramer acetate was 20 mg subcutaneously daily.
(§2) Around 40 patients were treated in each treatment group (placebo: 41, 7 mg: 42, and 14 mg: 40). […] The mean age of the study population was 41.4 years. […] The base line Expanded Disability Status Scale (EDSS) score was similar between treatment groups (around 2.5). A few more patients had Magnetic Resonance Image (MRI) disease activity (at least one T1-Gd lesion) at baseline in 7 mg group (28.6%) than in placebo (14.6%) and 14 mg (12.8%) groups.
(§3) Safety was evaluated with reported Treatment Emergent Adverse Events (TEAE), physical examination (every 8-weeks), laboratory data (e.g. Liver Function Test, every 2 weeks), vital signs (every 8-weeks), ECG and abdominal ultrasound (at baseline and at 24-weeks). Brain MRI activity, including T1-gadolinium (T1-Gd) lesions with central reading was recorded every 8-weeks, EDSS scores were recorded at baseline and at 24-weeks, Fatigue impact scale was assessed every 8-weeks, and relapses were assessed at every clinical visit.

[2] = test system: relapsing-remitting multiple sclerosis patients; test: Confirmed MS relapses / annualized relapse rate, 24-week study, ITT population; conditions: 24 weeks
Description: as §1, §2, §3
Twenty-nine patients experienced a total of 30 confirmed relapses. Two relapses occurred after treatment discontinuation (1 day in one placebo patient, 41 days in one 7 mg patient). Therefore, 28 confirmed relapses occurring in 27 patients were included in the analysis (Table 3).

[3] = test system: relapsing-remitting multiple sclerosis patients; test: Safety and tolerability (TEAE, laboratory data), 24-week study; conditions: 24 weeks
Description: as §1
Around 40 patients were treated in each treatment group (placebo: 41, 7 mg: 42, and 14 mg: 40).
as §3

[4] = test system: relapsing-remitting multiple sclerosis patients; test: Brain MRI Gd-enhancing T1-lesions (number and volume), entire 48-week double-blind treatment period, ITT population
Description: (§4) Design/Methods: 96 of the 123 patients that were randomized to study treatment ([…]) for the first 6-months in Example 1 completed this 6-month period and accepted to continue medication for an additional 6-month period (placebo: 37, 7 mg: 30, 14 mg: 29). Of the 96 treated patients, 5 patients prematurely withdrew from the study treatment (placebo: 3, 7 mg: 0, and 14 mg: 2). Safety was evaluated from TEAE, physical exam (every 6 weeks), laboratory data (every 6 weeks), vital signs (every 6 weeks), ECG (at the close-out visit), pancreatic ultrasound (at the close-out visit) and brain MRI (at the close-out visit). Relapses were recorded and EDSS was performed every 6-weeks. Annualized relapse rates (ARR) were analyzed by a Poisson model with the total number of confirmed relapses onset between randomization date and last dose date as the response variable, treatment and region as covariates, and log-transformed standardized study duration as an offset variable. The following results report the entire 48-week double-blind treatment period.
One patient (14 mg group) had one day participation in the study and had no valid baseline MRI data. Two other patients, one in 7 mg and one in 14 mg, prematurely discontinued the study and no post baseline MRI was collected.

[5] = test system: relapsing-remitting multiple sclerosis patients; test: Confirmed MS relapses / annualized relapse rate, 48-week treatment period, ITT population; conditions: 48 weeks
Description: Safety was evaluated from TEAE, physical exam (every 6 weeks), laboratory data (every 6 weeks), vital signs (every 6 weeks), ECG (at the close-out visit), pancreatic ultrasound (at the close-out visit) and brain MRI (at the close-out visit). Relapses were recorded and EDSS was performed every 6-weeks.

[6] = test system: relapsing-remitting multiple sclerosis patients; test: Safety and tolerability (TEAE, laboratory data), 48-week treatment period; conditions: 48 weeks
Description: as §4

[7] = 7 mg teriflunomide + GA 20 mg sc daily
[8] = 14 mg teriflunomide + GA 20 mg sc daily
[9] = 7 mg or 14 mg teriflunomide + GA
[10] = the two teriflunomide groups (7 mg, 14 mg) + GA vs placebo + GA
[11] = 7 mg teriflunomide + GA 20 mg sc daily, 48 weeks
[12] = 14 mg teriflunomide + GA 20 mg sc daily (group not given)

C/C(O)=C(\C#N)C(=O)Nc1ccc(C(F)(F)F)cc1 [teriflunomide, (Z)-2-cyano-3-hydroxy-but-2-enoic acid-(4′-trifluoromethylphenyl)-amide]
Patients with >=1 Gd-enhancing T1-lesions post-baseline: No (% of patients) [1, 7]: 61.0% | Unadjusted Gd-enhancing T1-lesions per scan [1, 7]: 0.321 | Unadjusted Gd-enhancing T1-lesions per scan [1, 8]: 0.262 | Disease control as evaluated by T1-Gd MRI activity ([1]; teriflunomide added to stable-dosed GA): improved disease control beyond glatiramer acetate alone | Adjusted annualized relapse rate, estimate (Poisson model) [2, 7]: 0.311 | Total number of relapses [2, 7]: 6 | Unadjusted annualized relapses rate [2, 7]: 0.337 per patient year | Adjusted annualized relapse rate, estimate (Poisson model) [2, 8]: 0.647 | Total number of relapses [2, 8]: 12 | Unadjusted annualized relapses rate [2, 8]: 0.710 per patient year | Concurrent increase in ALT>3ULN and in total bilirubin>2ULN [3, 9]: No case | Deaths [3, 9]: No patients died | Number of patients with TEAE leading to treatment discontinuation [3, 7]: 3 | Patients with ALT greater than 3ULN [3, 7]: 0 | Patients with TEAE leading to treatment discontinuation (%) [3, 7]: 7.1% | Proportion of patients with TEAE potentially related to immunosuppression [3, 7]: 43% | Proportion of patients with a TEAE related to hepatic disorder [3, 7]: 9.5% | TEAE incidence rate [3, 7]: 83.3% | Number of patients with TEAE leading to treatment discontinuation [3, 8]: 4 | Patients with ALT greater than 3ULN [3, 8]: 1 | Patients with TEAE leading to treatment discontinuation (%) [3, 8]: 10% | Proportion of patients with TEAE potentially related to immunosuppression [3, 8]: 38% | Proportion of patients with a TEAE related to hepatic disorder [3, 8]: 12.2% | TEAE incidence rate [3, 8]: 87.5% | Tolerability and safety ([3]; each teriflunomide dose (7 mg, 14 mg) combined with GA): acceptable | Proportion of patients with occurrence of decreased WBC count and neutrophils (PCSA) [3, 10]: slightly higher | Patients with >=1 Gd-enhancing T1-lesions post-baseline: No (% of patients) [4, 11]: 56.1% | Unadjusted Gd-enhancing T1-lesions per scan [4, 11]: 0.317 | Unadjusted Gd-enhancing T1-lesions per scan ([4]; 14 mg teriflunomide + GA 20 mg sc daily, 48 weeks): 0.233 | Controlling disease activity as measured by T1-Gd lesions ([4]; teriflunomide added to GA, one-year study): trend to benefit | Adjusted annualized relapse rate, estimate (Poisson model) [5, 7]: 0.262 | Number of patients with >=1 relapses: Yes (number of patients) [5, 7]: 8 | Unadjusted annualized relapses rate [5, 7]: 0.281 per patient year | Adjusted annualized relapse rate, estimate (Poisson model) [5, 8]: 0.497 | Number of patients with >=1 relapses: Yes (number of patients) [5, 8]: 15 | Unadjusted annualized relapses rate [5, 8]: 0.546 per patient year | Number of patients experiencing a serious TEAE [6, 7]: 5 | Number of patients with TEAE leading to treatment discontinuation [6, 7]: 3 | Patients experiencing a serious TEAE (%) [6, 7]: 11.9% | Patients who experienced a TEAE related to hypertension (number) [6, 7]: 2 | Patients with ALT greater than 3×ULN [6, 7]: 0 | Patients with TEAE leading to treatment discontinuation (%) [6, 7]: 7.1% | Proportion of patients experiencing a TEAE related to hypersensitivity [6, 7]: 14.3% | Proportion of patients with a TEAE potentially related to immunosuppression (all infections and hematological disorders) [6, 7]: 52.4% | Proportion of patients with a TEAE related to hepatic disorder [6, 7]: 9.5% | TEAE incidence rate [6, 7]: 95.2% | Number of patients experiencing a serious TEAE [6, 12]: 2 | Patients experiencing a serious TEAE (%) [6, 12]: 4.9% | Number of patients with TEAE leading to treatment discontinuation [6, 8]: 5 | Patients who experienced a TEAE related to hypertension (number) [6, 8]: 2 | Patients with ALT greater than 3×ULN [6, 8]: 1 | Patients with TEAE leading to treatment discontinuation (%) [6, 8]: 12.2% | Proportion of patients experiencing a TEAE related to hypersensitivity [6, 8]: 24.4% | Proportion of patients with a TEAE potentially related to immunosuppression (all infections and hematological disorders) [6, 8]: 51.2% | Proportion of patients with a TEAE related to hepatic disorder [6, 8]: 12.2% | TEAE incidence rate [6, 8]: 92.7% | Tolerability and safety ([6]; each dose of teriflunomide (7 mg, 14 mg) combined with GA): acceptable and manageable | Proportions of patients with occurrence of decreased WBC and neutrophil counts (PCSA) [6, 10]: slightly higher
